# In the RepoRT retention time repository (doi:10.1016/j.jhazmat.2019.121712):
# Experiment: Thermo Scientific Acclaim RSLC 120 C18, 100 × 2.1 mm, 2.2 µm, 30 °C; A: 90% water + 10% methanol + 0.01% formic acid + 5 mM ammonium formate; B: methanol + 0.01% formic acid + 5 mM ammonium formate; gradient (min/%B) 0.1/1 3/39 14/99.9 16/99.9
# Details: stereoisomer not certain
row,SMILES,LC retention time [min]
1,COc1ccc2[nH]cc(CCN)c2c1,4.01
2,NCCc1ccc(O)cc1,2.28
3,CCCCn1cc(C(=O)c2cccc3ccccc23)c2ccc(O)cc21,10.6
4,COP(=S)(OC)SCN1C(=O)c2ccccc2C1=O,8.94
5,CCOP(=O)(NC(C)C)Oc1ccc(SC)c(C)c1 (configuration not stated),10.4
6,C=CC1(C)CC(OC(=O)CSCCN(CC)CC)C2(C)C(C)CCC3(CCC(=O)C32)C(C)C1O (configuration not stated),7.71
7,CCC(C(N)=O)N1CCCC1=O (configuration not stated),3.74
8,CCC(C)C(=O)OC1CC(C)C=C2C=CC(C)C(CCC3CC(O)CC(=O)O3)C21 (configuration not stated),12
9,CCOC(=O)C1(c2ccccc2)CCC=CC1N(C)C (configuration not stated),5.1
10,CCCCCn1cc(C(=O)Nc2cccc3ccccc23)c2ccccc21,11.7
11,CCC1(C2OC(C3OC(O)(CO)C(C)CC3C)CC2C)CCC(C2(C)CCC3(CC(O)C(C)C(C(C)C(OC)C(C)C(=O)O)O3)O2)O1 (configuration not stated),13.8
12,CCCCn1cc(C(=O)c2cccc3ccccc23)c2c(O)cccc21,12
13,C=CCN(CC=C)CCc1c[nH]c2ccc(OC)cc12,4.89
14,CC1CC2C(C(O)CC3(C)C2CCC3(O)C(=O)CO)C2(C)C=CC(=O)C=C12 (configuration not stated),8.75
15,CC(=O)OCC(=O)C1(O)CCC2C3CCC4=CC(=O)CCC4(C)C3C(O)CC21C (configuration not stated),8.8
16,O=C1CC2(CCCC2)CC(=O)N1CCCCN1CCN(c2ncccn2)CC1,5.78
17,N=C1NC(=O)C(c2ccccc2)O1 (configuration not stated),4.34
18,CCCC(NC)C(=O)c1ccccc1 (configuration not stated),4.89

row,SMILES,LC retention time [min]
1,CN(C)CC(c1ccc(O)cc1)C1(O)CCCCC1 (configuration not stated),4.76
2,CC(=O)OC1CCC2C3CCC4CC(=O)C=C(C)C4(C)C3CCC12C (configuration not stated),12.5
3,COC(=O)c1ccccc1CS(=O)(=O)NC(=O)Nc1nc(OC)cc(OC)n1,8.77
4,CCNC1(c2cccc(OC)c2)CCCCC1=O (configuration not stated),4.93
5,CC(=O)SC1CC2=CC(=O)CCC2(C)C2CCC3(C)C(CCC34CCC(=O)O4)C12 (configuration not stated),9.24
6,CC(O)CN1CCN(CC(=O)O)CCN(CC(=O)O)CCN(CC(=O)O)CC1 (configuration not stated),1.31
7,CCCCCn1cc(C(=O)NC23CC4CC(CC(C4)C2)C3)c2ccccc21,13.2
8,CC1=C(C(=O)Nc2ccccc2)S(=O)(=O)CCO1,5.59
9,CNC(C)C(O)c1ccc(O)cc1 (configuration not stated),2.05
10,CN(C)CCc1c[nH]c2ccc(O)cc12,2.82
11,C=CCC(C(=O)NC(N)=O)C(C)C (configuration not stated),6.94
12,CCCCn1cc(C(=O)c2cccc3ccccc23)c2cccc(O)c21,11.2
13,CC(=O)C1CCC2C3CCC4=CC(=O)CCC4(C)C3CCC12C (configuration not stated),11.2
14,COc1ccc(CC2c3cc(OC)c(OC)cc3CCN2C)cc1OC (configuration not stated),4.71
15,O=S(=O)(O)NC1CCCCC1,6.99
16,CCCC(C)(COC(N)=O)COC(=O)NC(C)C (configuration not stated),7.99
17,CNC(=O)N(C)c1nnc(C(C)(C)C)s1,7.25
18,CCOP(=S)(OCC)N1C(=O)c2ccccc2C1=O,10.2

# The remaining lines, values ahead:
row,LC retention time [min],SMILES
1,1.38,NC(CO)C(=O)NNCc1ccc(O)c(O)c1O (configuration not stated)
2,7.63,OC(CCN1CCCCC1)(c1ccccc1)C1CC2C=CC1C2 (configuration not stated)
3,4.74,CNc1c(C)n(C)n(-c2ccccc2)c1=O
4,8.08,CNCCCC12CCC(c3ccccc31)c1ccccc12
5,6.74,CN1CCCCC1CCN1c2ccccc2Sc2ccc(S(C)=O)cc21 (configuration not stated)
6,8.41,CCCCOc1cc(C(=O)NCCN(CC)CC)c2ccccc2n1
7,10.7,CCC1=C(C)CN(C(=O)NCCc2ccc(S(=O)(=O)NC(=O)NC3CCC(C)CC3)cc2)C1=O (configuration not stated)
8,2.83,CCN(CC)CCNC(=O)c1ccc(N)cc1
9,7.47,CC(=O)c1ccc2c(c1)N(CCCN(C)C)c1ccccc1S2
10,5.94,CCCCOc1cc(C(=O)OCCN(CC)CC)ccc1N
11,9.44,CCCCC1=NC2(CCCC2)C(=O)N1Cc1ccc(-c2ccccc2-c2nn[nH]n2)cc1
12,8.85,CCN(CC)CCCN(c1ccccc1)C1Cc2ccccc2C1
13,3.49,CN(C)CCc1c[nH]c2ccc(Cn3cncn3)cc12
14,4.78,CCCC(=O)Nc1ccc(OCC(O)CNC(C)C)c(C(C)=O)c1 (configuration not stated)
15,8.29,CCc1cc2cc(OC)c(OC)cc2c(Cc2ccccc2)n1
16,4.09,Cn1c(=O)c2c(ncn2CCO)n(C)c1=O
17,8.1,CC(CN(C)C)CN1c2ccccc2Sc2ccccc21 (configuration not stated)
18,6.94,CN1CCN(C(c2ccccc2)c2ccccc2)CC1
19,6.41,COc1ccc(C2Sc3ccccc3N(CCN(C)C)C(=O)C2O)cc1 (configuration not stated)
20,6.67,Cc1cccc(Nc2ccncc2S(=O)(=O)NC(=O)NC(C)C)c1
21,8.18,CCCc1nn(C)c2c(=O)[nH]c(-c3cc(C(=O)CN4CCN(CC)C(=O)C4=O)ccc3OCC)nc12
22,9.83,COc1cc(CNC(=O)CCCCC=CC(C)C)ccc1O
23,7.93,CCOc1nc2cccc(C(=O)O)c2n1Cc1ccc(-c2ccccc2-c2nn[nH]n2)cc1

row,LC retention time [min],SMILES
1,8.04,CCN(CC)CCOCCOC(=O)C(CC)(CC)c1ccccc1
2,5.44,CON=C(C(=O)NC1C(=O)N2C(C(=O)O)=C(CSC(=O)c3ccco3)CSC12)c1csc(N)n1 (configuration not stated)
3,4.72,Nc1ccc(S(=O)(=O)NC(=O)c2ccccc2)cc1
4,5.06,CC(=O)N(C)N(C(=O)C(=O)N(C)C)c1ccccc1
5,3.23,CC(C)(C)NCC(O)c1ccc(O)c(CO)c1 (configuration not stated)
6,6.28,CC(=O)Oc1c(C)cc(OCC(O)CNC(C)C)c(C)c1C (configuration not stated)
7,5.93,CCOc1ccc(NC(C)=O)cc1
8,4.06,COc1cc(Cc2cnc(N)nc2N)cc(OC)c1OC
9,4.44,Cc1cc2c(OCC(O)CNC(C)C)cccc2[nH]1 (configuration not stated)
10,6.21,CC(C)(C(=O)c1cccnc1)c1cccnc1
11,3.94,CC(=O)Nc1c(C)n(C)n(-c2ccccc2)c1=O
12,4.38,COc1ccc(NS(=O)(=O)c2ccc(N)cc2)nn1
13,10.7,CC(C)Cc1ccc(C(C)C(=O)O)cc1 (configuration not stated)
14,11,CN(CC=CC#CC(C)(C)C)Cc1cccc2ccccc12
15,5.86,CN(C)CCN(Cc1ccccc1)c1ccccn1
16,5.54,COCCN(C(=O)CS(=O)(=O)O)c1c(C)cccc1C
17,8.79,CN(C)CCC=C1c2ccccc2C(C)(C)c2ccccc21
18,4.11,Cc1nc(NS(=O)(=O)c2ccc(N)cc2)oc1C
19,7.19,CCc1cccc(CC)c1N(COC)C(=O)CS(=O)(=O)O
20,6.36,COCC(C)N(C(=O)C(=O)O)c1c(C)csc1C (configuration not stated)
21,5.89,COc1ccc(CN(CCN(C)C)c2ccccn2)cc1
22,4.6,Cc1cc(NS(=O)(=O)c2ccc(N)cc2)no1
23,4.69,Cc1c(N)c(=O)n(-c2ccccc2)n1C
